Assay [1] relates to estradiol-17β (E2) in the brain. As to the kind of experiment: Brain levels of E2 in KT-treated females (LC-MS/MS). It counts as in vivo, medaka (Oryzias latipes). To be noted: females treated with 100 ng/ml KT by immersion; within 2 days, low during remainder of treatment; n = 4 per sampling day; p<0.0001 on days 2, 5, and 9. How it is done:
(§1) In another experiment, females with intact ovaries were treated with 100 ng/ml of KT or AI (Fadrozole; Sigma-Aldrich, St. Louis, MO) by immersion in water for 9 days. […] These fish were sampled on days 0 (untreated controls), 2, 5, and 9. The sex steroid concentration used was based on previously reported serum steroid levels in medaka ([Foran et al., 2002]; [Foran et al., 2004]; [Tilton et al., 2003]).
Dissected whole brains were frozen and stored at −80°C until analysis. Levels of E2 in the brains were analyzed by liquid chromatography coupled to tandem mass spectrometry (LC-MS/MS) at Aska Pharmamedical (Kanagawa, Japan).

Assay [2] has as its system npbb expression in Vs/Vp and PMm/PMg/PPp. As to the kind of experiment: npbb expression in brain nuclei of gonad-intact medaka after immersion drug treatment (in situ hybridization). It is filed as in vivo, medaka (Oryzias latipes). Particulars: n = 5.
Excerpt: (§2) DNA fragments of 645 bp, 647 bp, and 1520 bp corresponding to nucleotides 1–645 of the medaka npba cDNA (GenBank accession number NM_001308979), 1–647 of the medaka npbb EST clone of National BioResource Project (NBRP) Medaka (http://www.shigen.nig.ac.jp/medaka/) (clone ID: olova57o22), and 1699–3218 of the medaka npbwr2 cDNA (deposited in DDBJ/EMBL/GenBank with accession number LC375958), respectively, were PCR-amplified and subcloned into the pGEM-Teasy vector (Promega, Madison, WI). The resultant constructs were used to generate digoxigenin (DIG)-labeled cRNA probes for npba, npbb, and npbwr2 by using the DIG RNA Labeling Mix and T7 RNA polymerase (Roche Diagnostics). The procedure for in situ hybridization has been described previously ([Hiraki et al., 2012]). In brief, the brain, pituitary, and/or spinal cord were fixed in 4% paraformaldehyde (PFA), embedded in paraffin, and cut into 10 μm sections in the coronal plane. Hybridization signals were visualized by using alkaline phosphatase-conjugated anti-DIG antibody (Roche Diagnostics) and 5-bromo-4-chloro-3-indolyl phosphate/nitro blue tetrazolium (BCIP/NBT) substrate (Roche Diagnostics). Color development was allowed to proceed overnight or was stopped after 2–3 hr (for quantification of npba expression in Vs/Vp) or 15–30 min (for quantification of npba expression in PMm/PMg) to avoid saturation. All sections in each comparison were processed simultaneously under the same conditions.
(§3) To obtain quantitative data, the number of npba/npbb-expressing neurons in each brain nucleus or each brain/spinal cord region was counted manually. In some analyses, the resulting sections were photographed and converted to black and white binary images by thresholding using Adobe Photoshop (Adobe Systems, San Jose, CA), and the total area of npba/npbb expression was calculated by using ImageJ (http://rsbweb.nih.gov/ij/). The threshold was set manually by visual inspection of the images to successfully separate specific signals from background noise. Brain nuclei were identified by using medaka brain atlases ([Anken and Bourrat, 1998]; [Ishikawa et al., 1999]); http://www.shigen.nig.ac.jp/medaka/medaka_atlas/), supplemented with information from our Nissl-stained sections ([Kawabata et al., 2012]).
as §1

For assay [3], the system named is npba expression in Vs/Vp and PMm/PMg. As to the kind of experiment: npba expression in brain nuclei of gonad-intact medaka after immersion drug treatment (in situ hybridization). To be noted: ovary-intact adult females, n = 5. It is filed as in vivo, medaka (Oryzias latipes).
Excerpt: as §2, §3, §1

For assay [4], the system named is npbb expression in Vs/Vp and PMm/PMg/PPp. As to the kind of experiment: npbb expression in brain nuclei of gonadectomized medaka after sex steroid supplementation (in situ hybridization). It counts as in vivo, medaka (Oryzias latipes). Particulars: n = 5. From the text: DNA fragments of 645 bp, 647 bp, and 1520 bp corresponding to nucleotides 1–645 of the medaka npba cDNA (GenBank accession number NM_001308979), 1–647 of the medaka npbb EST clone of National BioResource Project (NBRP) Medaka (http://www.shigen.nig.ac.jp/medaka/) (clone ID: olova57o22), and 1699–3218 of the medaka npbwr2 cDNA (deposited in DDBJ/EMBL/GenBank with accession number LC375958), respectively, were PCR-amplified and subcloned into the pGEM-Teasy vector (Promega, Madison, WI). The resultant constructs were used to generate digoxigenin (DIG)-labeled cRNA probes for npba, npbb, and npbwr2 by using the DIG RNA Labeling Mix and T7 RNA polymerase (Roche Diagnostics). […] Color development was allowed to proceed overnight or was stopped after 2–3 hr (for quantification of npba expression in Vs/Vp) or 15–30 min (for quantification of npba expression in PMm/PMg) to avoid saturation. […]
To obtain quantitative data, the number of npba/npbb-expressing neurons in each brain nucleus or each brain/spinal cord region was counted manually. In some analyses, the resulting sections were photographed and converted to black and white binary images by thresholding using Adobe Photoshop (Adobe Systems, San Jose, CA), and the total area of npba/npbb expression was calculated by using ImageJ (http://rsbweb.nih.gov/ij/). […]

Assay [5] has as its system npba expression in Vs/Vp and PMm/PMg. Particulars: estrogen replacement, ref Hiraki et al., 2014; cited from earlier work. From the text:
We determined whether the sexual phenotype of npba expression can be reversed from the female to the male pattern, and vice versa, by altering the adult sex steroid milieu. […] Here, we first tested whether npba expression in these brain nuclei can be induced in males by castration and sex steroid supplementation.

In assay [6] the test system is ER expression in Vs/Vp and PMm/PMg. Particulars: males treated with estrogen; ref Hiraki et al., 2012; cited from earlier work. From the text:
Importantly, our results provide insight into the mechanisms underlying the reversal of sexually dimorphic npba expression. […] Considering these findings, it seems plausible that this estrogen-induced npba expression is not fully realized until sufficient ER expression is achieved.

For assay [7], the system named is npba expression in Vs/Vp and PMm/PMg. More on the design: method as in Kikuchi et al., 2019. To be noted: adult males treated with estrogen; ref Kikuchi et al., 2019; cited from earlier work.
The test system of the next assay is Cckar expression. Particulars: ref Xu et al., 2012, cited from earlier work. From the text:
Another distinctive aspect of npba expression is the bidirectional reversibility of sexual dimorphism (both from female-typical to male-typical pattern and from male-typical to female-typical pattern). […] In mice, for example, the cholecystokinin receptor gene (Cckar) implicated in female sexual receptivity is expressed in the ventr ...

Assay [8] relates to npba expression in the whole brain. As to the kind of experiment: npba expression in whole brain of ovariectomized ΔERE mutant females treated with E2 (real-time PCR). It counts as in vivo, medaka (Oryzias latipes). To be noted: OVX + 100 ng/ml E2, 6 days, n = 6 per group. (In general: Quantitative PCR measures a nucleic acid by following its amplification.)

In the case of `C[C@]12CC(=O)[C@H]3[C@@H](CCC4=CC(=O)CC[C@@]43C)[C@@H]1CC[C@@H]2O` [KT, 11-ketotestosterone], the “brain E2 levels, percent of untreated controls” value in assay [1] was “less than 5%”. For the same compound, the “npbb expression in PMm/PMg/PPp” value in assay [2] (ovary-intact adult females, 100 ng/ml KT by immersion, number of neurons p=0.0038 on day 9, total area p=0.0021 and <0.0001 on days 5 and 9) is given as “significant decrease”. In assay [2] (ovary-intact adult females, 100 ng/ml KT by immersion, p<0.0001 on days 5 and 9), the “number of npbb-expressing neurons in Vs/Vp” value is “undetectable or nearly undetectable levels”. Besides, the “total area of npbb expression in Vs/Vp” value in assay [2] (ovary-intact adult females, 100 ng/ml KT by immersion, p=0.0235, <0.0001, <0.0001 on days 2, 5, and 9) is reported as “undetectable or nearly undetectable levels”. Also, the “number of npba-expressing neurons in PMm/PMg” value in [3] (100 ng/ml KT by immersion, 9 days) is on record as “unchanged”. Further, the “total area of npba expression in Vs/Vp” value in assay [3] (100 ng/ml KT by immersion, 9 days, p=0.0002 on day 2, p<0.0001 on days 5 and 9) was “undetectable or nearly undetectable levels”. For the same compound, the “number of npba-expressing neurons in Vs/Vp” value in assay [3] (100 ng/ml KT by immersion, days 0, 2, 5, 9, p<0.0001 on days 5 and 9 versus day 0) is listed as “undetectable or nearly undetectable levels”. The “total area of npba expression in PMm/PMg” value in [3] (100 ng/ml KT by immersion, p=0.0068 on day 9) is “significant decline”. The “npbb expression in Vs/Vp and PMm/PMg/PPp after ovariectomy (restoration)” value in [4] (ovariectomized adult females, 100 ng/ml KT, 6 days) is given as “not by KT”.

Take `N#Cc1ccc(C2CCCc3cncn32)cc1` (stereo not drawn) [AI, Fadrozole]: the “npbb expression in PMm/PMg/PPp (significant decrease)” value in [2] (ovary-intact adult females, 100 ng/ml AI by immersion, 9 days) is “not AI treatment”. In assay [2] (ovary-intact adult females, 100 ng/ml AI by immersion, p=0.0002 and <0.0001 on days 5 and 9), the “number of npbb-expressing neurons in Vs/Vp” value is listed as “undetectable or nearly undetectable levels”. For the same compound, the “total area of npbb expression in Vs/Vp” value in [2] (ovary-intact adult females, 100 ng/ml AI by immersion, p=0.0013 and 0.0009 on days 5 and 9) is on record as “undetectable or nearly undetectable levels”. Besides, the “number of npba-expressing neurons in Vs/Vp (compared with KT treatment)” value in assay [3] (100 ng/ml AI by immersion, p<0.0001 on days 2, 5, and 9) is given as “essentially the same results”. Also, in [3] (100 ng/ml AI by immersion, p=0.0063 and 0.0025 on days 5 and 9), the “total area of npba expression in Vs/Vp (compared with KT treatment)” value is “essentially the same results”. Besides, in assay [3] (100 ng/ml AI by immersion, p=0.0108 on day 9), the “total area of npba expression in PMm/PMg (compared with KT treatment)” value was “essentially the same results”.

Consider estrogen, for which the “npba expression in Vs/Vp and PMm/PMg of ovariectomized females” value in [5] is recorded as “restored by estrogen replacement”. Further, the “ER expression in Vs/Vp and PMm/PMg of males” value in assay [6] was “induces ER expression”. Besides, the “emergence of Npba-expressing neurons in adult males” value in assay [7] is recorded as “emerged in adult males treated with estrogen”. In the assay with Cckar expression (adult males treated with estrogen), the “Cckar expression in ventromedial nucleus of the hypothalamus, males” value is “does not induce expression of Cckar”. In addition, the “Cckar expression in ventromedial nucleus of the hypothalamus, females” value with Cckar expression (ovariectomized adult females treated with estrogen) is given as “reinstated by treatment with estrogen”.

On to `C[C@]12CC[C@@H]3c4ccc(O)cc4CC[C@H]3[C@@H]1CC[C@@H]2O` [E2, estradiol-17β], for which, in assay [2] (testis-intact adult males, 100 ng/ml E2 by immersion, p=0.0369), the “npbb-expressing neurons in Vs/Vp” value is reported as “a few npbb-expressing neurons were newly induced in Vs/Vp”. For the same compound, in assay [8] (p=0.0023), the “npba expression in the whole brain, mutant versus wild-type females” value is listed as “not able to restore npba expression to the level present in wild-type females”. Moreover, the “npba expression in the whole brain after ovariectomy and E2 treatment” value in assay [8] (ΔERE mutant females) is “restored by E2 treatment”. Moreover, the “npbb-expressing neurons in Vs/Vp of castrated males” value in [4] (castrated adult males, 100 ng/ml E2, 6 days, p<0.0001) was “induced a few npbb-expressing neurons in Vs/Vp”.

The values above are taken from PMC6684226, “Neuropeptide B mediates female sexual receptivity in medaka fish, acting in a female-specific but reversible manner” (eLife, 2019).
